The values below come from article PMC12682859, “Interconnected roles of mitochondrial carrier proteins ANT, PiT, and UCPs in proton transport” (Frontiers in Molecular Biosciences, 2025).

Molecules are shown by their SMILES.

One assay has as its target T1, ANT1 (Bos taurus, UniProt P02722).
T1 sequence (P02722 2-298): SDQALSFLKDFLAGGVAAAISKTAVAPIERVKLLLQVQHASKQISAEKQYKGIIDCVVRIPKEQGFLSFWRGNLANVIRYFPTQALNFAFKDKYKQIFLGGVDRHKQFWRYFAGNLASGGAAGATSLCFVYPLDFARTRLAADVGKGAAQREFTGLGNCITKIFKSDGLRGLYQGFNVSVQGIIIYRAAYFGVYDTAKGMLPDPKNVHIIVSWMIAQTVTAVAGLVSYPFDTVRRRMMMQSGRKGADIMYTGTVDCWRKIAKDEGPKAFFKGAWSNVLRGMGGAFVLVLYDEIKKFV
Put plainly: biochemical. More on the design: gene SLC25A4; full length, N-terminal His6 tag kept, pelB leader removed; E. coli membranes; mainly monomer in liposomes; SPQ fluorescence quenching assay of proton transport by carriers reconstituted in EYPC liposomes, palmitic acid activated. As to conditions: EYPC liposomes + 2.5% cardiolipin, 100 uM palmitic acid. As for the experimental part: FIGURE 8 Proton transport and CATR-inhibited proton transport rates of reconstituted UCP2, UCP4, ANT1, co-reconstituted UCP4:ANT1 and UCP2:ANT1 (1:1 stoichiometric ratio) in liposomes made from EYPC containing 2.5% added CL, in the presence of 100 μM palmitic acid (PA). Each experiment included final concentrations of 1 μM total combined protein and 1 mM lipid. Dark bars represent the total proton transport rate in the absence of CATR, shaded Gray bars represent the proton transport rate in the presence of 5 μM CATR (for corresponding numerical values, see Supplementary Table S6). Each bar represents the average transport rate of at least 10 repeats (from at least two independent experiments), and the error bars show the standard deviations. Asterisks (*) indicate a statistically significant difference (p < 0.05) between the total proton efflux and CATR-inhibited efflux within each combination. Note that the proton transport data for UCP4, UCP2, and ANT1 are reproduced from Figure 5. For the 1:1 combination of UCP4 and ANT1 heterotetramers, to further confirm the cooperativity between ANT1 and UCP4 dimers, we examined proton transport in the presence of the known ANT inhibitor CATR. CATR is an irreversible substrate inhibitor of ANT that blocks its ADP-ATP exchange function ([Klingenberg et al., 1975]). […]

Assay [1] deals with T2, UCP2:ANT1 heterotetramer (1:1) (Homo sapiens; Bos taurus, UniProt P02722+P55851).
T2 construct: co-reconstituted 1:1 in liposomes from purified N-terminally His6-tagged monomers (bovine ANT1, human UCP2); heterotetramer
T2 sequence (P55851 1-309): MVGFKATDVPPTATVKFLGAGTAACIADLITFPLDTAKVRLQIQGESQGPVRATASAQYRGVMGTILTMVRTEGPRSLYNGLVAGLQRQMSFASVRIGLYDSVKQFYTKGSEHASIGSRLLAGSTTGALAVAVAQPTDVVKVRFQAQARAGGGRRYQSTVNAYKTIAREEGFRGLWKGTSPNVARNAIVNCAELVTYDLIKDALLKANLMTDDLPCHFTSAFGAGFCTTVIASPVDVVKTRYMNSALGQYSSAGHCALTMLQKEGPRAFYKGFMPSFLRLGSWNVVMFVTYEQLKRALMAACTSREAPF
T2 sequence (P02722 2-298): T1 sequence (P02722 2-298)
Put plainly: biochemical. Details: SPQ fluorescence quenching assay of proton transport by carriers reconstituted in EYPC liposomes, palmitic acid activated. As to conditions: EYPC liposomes + 2.5% cardiolipin, 100 uM palmitic acid. As for the experimental part: (§1) FIGURE 8 Proton transport and CATR-inhibited proton transport rates of reconstituted UCP2, UCP4, ANT1, co-reconstituted UCP4:ANT1 and UCP2:ANT1 (1:1 stoichiometric ratio) in liposomes made from EYPC containing 2.5% added CL, in the presence of 100 μM palmitic acid (PA). Each experiment included final concentrations of 1 μM total combined protein and 1 mM lipid. Dark bars represent the total proton transport rate in the absence of CATR, shaded Gray bars represent the proton transport rate in the presence of 5 μM CATR (for corresponding numerical values, see Supplementary Table S6). Each bar represents the average transport rate of at least 10 repeats (from at least two independent experiments), and the error bars show the standard deviations. Asterisks (*) indicate a statistically significant difference (p < 0.05) between the total proton efflux and CATR-inhibited efflux within each combination. Note that the proton transport data for UCP4, UCP2, and ANT1 are reproduced from Figure 5. For the 1:1 combination of UCP4 and ANT1 heterotetramers, to further confirm the cooperativity between ANT1 and UCP4 dimers, we examined proton transport in the presence of the known ANT inhibitor CATR. CATR is an irreversible substrate inhibitor of ANT that blocks its ADP-ATP exchange function ([Klingenberg et al., 1975]). We surmised that irreversible inhibition of the nucleotide exchange activity of ANT and prevention of its alternating transport function could also affect the cooperativity of proton transport activity of ANT1-UCP4 heterotetramers. To verify this hypothesis, we first examined the inhibitory effect of CATR on the proton transport activity of individually reconstituted UCP4 and ANT1. […] A similar inhibitory effect of CATR on the proton transport function of ANT has been reported in a previous study ([Kreiter et al., 2021]). […] Supplementary Material . Figure S1. Schematic of proton transport assay and data analysis. […]

The next assay has as its target T3, UCP2 (Homo sapiens, UniProt P55851).
T3 construct: full length, N-terminal His6 tag kept, pelB leader removed; E. coli membranes; homotetramer in liposomes
T3 sequence (P55851 1-309): T2 sequence (P55851 1-309)
Put plainly: biochemical. More on the design: SPQ fluorescence quenching assay of proton transport by carriers reconstituted in EYPC liposomes, palmitic acid activated. As to conditions: EYPC liposomes + 2.5% cardiolipin, 100 uM palmitic acid. The protocol:
as §1

Another assay addresses T4, UCP4 (Homo sapiens, UniProt O95847).
T4 construct: gene SLC25A27; full length, N-terminal His6 tag kept, pelB leader removed; E. coli membranes; homotetramer in liposomes
T4 sequence (O95847 1-323): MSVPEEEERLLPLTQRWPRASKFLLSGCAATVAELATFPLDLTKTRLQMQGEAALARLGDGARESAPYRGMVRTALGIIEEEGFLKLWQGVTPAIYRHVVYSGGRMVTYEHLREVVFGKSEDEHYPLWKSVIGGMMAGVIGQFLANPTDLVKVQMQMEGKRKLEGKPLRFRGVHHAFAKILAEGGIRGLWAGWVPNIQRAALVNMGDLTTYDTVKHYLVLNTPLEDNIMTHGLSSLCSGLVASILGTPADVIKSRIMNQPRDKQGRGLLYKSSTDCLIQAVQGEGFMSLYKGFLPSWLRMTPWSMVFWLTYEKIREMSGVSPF
Put plainly: biochemical. Details: SPQ fluorescence quenching assay of proton transport by carriers reconstituted in EYPC liposomes, palmitic acid activated. To be noted: EYPC liposomes + 2.5% cardiolipin, 100 uM palmitic acid. As for the experimental part:
as §1

The target in assay [2] is T5, UCP4:ANT1 heterotetramer (1:1) (Homo sapiens; Bos taurus, UniProt O95847+P02722).
T5 construct: gene SLC25A27; co-reconstituted 1:1 in liposomes from purified N-terminally His6-tagged monomers (bovine ANT1, human UCP4); heterotetramer
T5 sequence (O95847 1-323): T4 sequence (O95847 1-323)
T5 sequence (P02722 2-298): T1 sequence (P02722 2-298)
Kind of assay: SPQ fluorescence proton efflux in proteoliposomes. As to conditions: read-out: % inhibition at 5 uM. Type of assay: biochemical.

As to `C=C1[C@@H]2CC[C@H]3[C@]4(C)C[C@H](O[C@@H]5O[C@H](CO)[C@@H](OS(=O)(=O)O)[C@H](OS(=O)(=O)O)[C@H]5OC(=O)CC(C)C)CC(C(=O)O)(C(=O)O)[C@H]4CC[C@]3(C2)[C@H]1O` [CATR, carboxyatractyloside], the inhibition at 5 µM on ANT1 was 70.1%; in assay [1] it was 73.6%; on UCP2 it was 1.7%; on UCP4 it was 2.7%; in assay [2], about 71%.

By inhibition is commonly meant the share of the control response that was lost under treatment.
